Measured values from ChEMBL document CHEMBL1201862, “PubChem BioAssay data set” (2004).
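Assay format: 96-well plates, 48-hour exposure. GI50: concentration for 50% inhibition of growth.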 Active and inactive are the calls of the source. Cut-off read from the data, not from the text of the source: active = GI50 up to about 1.1 µM and inactive = higher.

How the values were obtained:
Test in all cases: growth of human tumour cells (NCI), 48 h
[1] = test system: A498
[2] = test system: CCRF-CEM
[3] = test system: COLO 205
[4] = test system: HCC 2998
[5] = test system: HCT-116
[6] = test system: K562
[7] = test system: KM12
[8] = test system: M14
[9] = test system: MOLT-4
[10] = test system: Malme-3M
[11] = test system: NCI-H460
[12] = test system: OVCAR-3
[13] = test system: SF-295
[14] = test system: SW-620
[15] = test system: UACC-62
[16] = test system: SK-MEL-2
[17] = test system: HL-60

Measured: GI50

O=C1[C@@H]2C(c3ccccc3[N+](=O)[O-])=NO[C@@H]2C(=O)N1c1ccc(Cc2ccc(N3C(=O)[C@H]4C(c5ccccc5[N+](=O)[O-])=NO[C@H]4C3=O)cc2)cc1
inactive: [1] > 100 µM | [2] > 100 µM | [3] > 100 µM | [4] > 100 µM | [5] > 100 µM | [6] > 100 µM | [7] > 100 µM | [8] > 100 µM | [9] > 100 µM | [10] > 100 µM | [11] > 100 µM | [12] > 100 µM | [13] > 100 µM | [14] > 100 µM | [15] > 100 µM

COc1ccc(CC(=O)NCCc2ccc(OC)c(OC)c2OC)cc1
inactive: [1] > 100 µM | [2] > 100 µM | [4] > 100 µM | [5] > 100 µM | [6] > 100 µM | [7] > 100 µM | [8] > 100 µM | [9] > 100 µM | [10] > 100 µM | [11] > 100 µM | [13] > 100 µM | [16] > 100 µM | [14] > 100 µM

CCOc1ccc(/N=C(/NC(=O)c2ccccc2)SC)cc1
inactive: [1] > 100 µM | [2] 87.1 µM | [3] > 100 µM | [4] > 100 µM | [5] > 100 µM | [17] > 100 µM | [6] > 100 µM | [8] > 100 µM | [9] > 100 µM | [10] > 100 µM | [11] > 100 µM | [12] > 100 µM | [13] > 100 µM | [16] > 100 µM | [14] 43.4 µM | [15] > 100 µM

C#CCN(C(=O)C(F)(F)F)c1ccc(C(=O)c2ccc(N(CC#C)C(=O)C(F)(F)F)cc2)cc1
inactive: [2] 25.1 µM | [3] 30.8 µM | [4] 40.9 µM | [5] 34.5 µM | [17] 12.9 µM | [6] 21 µM | [7] 32.2 µM | [8] 33.2 µM | [9] 15.1 µM | [10] 32.6 µM | [11] 33.8 µM | [12] 33.1 µM | [13] 37.8 µM | [16] 33.7 µM | [14] > 100 µM | [15] 21.6 µM

COc1ccc(-c2nc(N)nc(-c3cc(C)ccc3O)c2Cl)cc1
inactive: [1] 43.7 µM | [2] > 100 µM | [3] > 100 µM | [4] > 100 µM | [5] 39.5 µM | [17] > 100 µM | [6] > 100 µM | [7] 65.5 µM | [8] 84.1 µM | [9] > 100 µM | [10] 31.8 µM | [11] 38.3 µM | [12] 30.6 µM | [13] 60.1 µM | [14] > 100 µM | [15] 29 µM

CCOc1ccc(NC(=O)CC2SC(Nc3ccc(C)cc3C)=NC2=O)cc1 (centres undefined)
inactive: [1] > 100 µM | [2] 29.2 µM | [4] > 100 µM | [5] > 100 µM | [17] 43.8 µM | [6] 52 µM | [8] > 100 µM | [9] 21.4 µM | [10] > 100 µM | [11] > 100 µM | [12] 48.8 µM | [13] > 100 µM | [16] > 100 µM | [14] > 100 µM | [15] 54.2 µM

COc1cc(/C=N\O[Si](C)(C)C(C)(C)C)ccc1O[Si](C)(C)C(C)(C)C
inactive: [2] 42.9 µM | [3] > 100 µM | [4] 24.5 µM | [5] 32.4 µM | [17] 37.8 µM | [6] 32.5 µM | [7] 83.6 µM | [8] 92.5 µM | [9] 37.8 µM | [10] > 100 µM | [11] > 100 µM | [12] 22.3 µM | [13] 78.5 µM | [16] 88.9 µM | [14] > 100 µM | [15] > 100 µM

COc1cc(C(C)c2cc3c(cc2OCCCCCOc2cc4c(cc2C(C)c2cc(OC)c(OC)c(OC)c2)OCO4)OCO3)cc(OC)c1OC (centres undefined)
inactive: [1] > 100 µM | [2] > 100 µM | [4] > 100 µM | [5] > 100 µM | [17] > 100 µM | [6] > 100 µM | [7] > 100 µM | [8] > 100 µM | [9] > 100 µM | [10] > 100 µM | [11] > 100 µM | [12] > 100 µM | [13] > 100 µM | [16] > 100 µM | [14] > 100 µM | [15] > 100 µM

CN(C)[C@@H]1C(O)=C(C(=O)NCNCCCC(=O)O)C(=O)[C@@]2(O)C(O)=C3C(=O)c4c(O)cccc4[C@@](C)(O)[C@H]3C[C@@H]12
inactive: [1] > 100 µM | [2] > 100 µM | [3] > 100 µM | [4] > 100 µM | [5] > 100 µM | [17] > 100 µM | [6] > 100 µM | [7] > 100 µM | [8] > 100 µM | [9] > 100 µM | [11] > 100 µM | [12] > 100 µM | [13] > 100 µM | [16] > 100 µM | [14] > 100 µM | [15] > 100 µM
